Measured values from patent US11912701B2, “Protein kinase inhibitors for promoting liver regeneration or reducing or preventing hepatocyte death” (HEPAREGENIX GMBH, priority 2018, dated 2024).

Legend:
Format in all cases: biochemical
[1] = biological target: JNK1 (Homo sapiens, UniProt P45983); test: 33PanQinase enzyme assay, JNK1; set-up: purchased ProQinase GmbH, Freiburg, Germany (33PanQinase Assay Service); conditions: ratio IC50(JNK1)/IC50(MKK4)
Description: (§1) The kinase activities of the compounds of the invention were measured using the 33PanQinase® Assay Service provided by ProQinase GmbH, Freiburg, Germany. Details of the assay conditions are disclosed on the website of ProQinase (https://www.proginase.com/products-services-biochemical-assay-services/kinase-assays). In brief, all kinase assays were performed in 96-well FlashPlates™ from PerkinElmer (Boston, MA, USA) in a 50 μl reaction volume. The reaction cocktail was pipetted in four steps in the following order: • 20 μl of assay buffer (standard buffer) • 5 μl of ATP solution (in H2O) • 5 μl of test compound (in 10% DMSO) • 20 μl enzyme/subtrate mix
(§2) The reaction cocktails were incubated at 30° C. for 60 minutes. The reaction is stopped with 50 μl of 2% (v/v) H3PO4, plates were aspirated and washed two times with 200 μl 0.9% (w/v) NaCl. Incorporation of ^33Pi was determined with a microplate scintillation counter (Microbeta, Wallac).
(§3) All assays were performed with a BeckmanCoulter/SAGIAN™ Core System.
(§4) In case of single concentration assays, the potency of the test compound is expressed as % residual activity. […] The fitting method used was a least-squares fit.
(§5) Selectivity of test compounds against BRaf, JNK1 and MKK7, altogether denominated as off-targets was calculated by the ratio of IC50 (off-target)/IC50 (MKK4) and categorized as follows: […]

[2] = biological target: T1, MKK7 (Homo sapiens, UniProt O14733); test: 33PanQinase enzyme assay, MKK7; set-up: purchased ProQinase GmbH, Freiburg, Germany (33PanQinase Assay Service); conditions: ratio IC50(MKK7)/IC50(MKK4)
T1 sequence (O14733 1-419): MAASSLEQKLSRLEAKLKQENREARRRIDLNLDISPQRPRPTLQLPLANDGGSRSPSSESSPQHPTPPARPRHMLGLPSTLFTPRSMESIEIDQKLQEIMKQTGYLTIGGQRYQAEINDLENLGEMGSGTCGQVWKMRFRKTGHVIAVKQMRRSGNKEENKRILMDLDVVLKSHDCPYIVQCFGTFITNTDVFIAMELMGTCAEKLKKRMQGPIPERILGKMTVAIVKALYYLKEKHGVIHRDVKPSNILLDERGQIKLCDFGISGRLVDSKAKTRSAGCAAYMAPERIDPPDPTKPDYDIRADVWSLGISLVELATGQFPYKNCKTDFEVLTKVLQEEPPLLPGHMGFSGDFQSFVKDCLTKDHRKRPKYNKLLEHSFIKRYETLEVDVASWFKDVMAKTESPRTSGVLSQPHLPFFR
Description: as §1, §2, §3, §4, §5

[3] = biological target: T2, MKK4 (Homo sapiens, UniProt P45985); test: 33PanQinase enzyme assay, MKK4; conditions: for IC50: assay 'IC50', read-out: Potency MKK4 (IC50)
T2 construct: purchased ProQinase GmbH, Freiburg, Germany (33PanQinase Assay Service)
T2 sequence (P45985 1-399): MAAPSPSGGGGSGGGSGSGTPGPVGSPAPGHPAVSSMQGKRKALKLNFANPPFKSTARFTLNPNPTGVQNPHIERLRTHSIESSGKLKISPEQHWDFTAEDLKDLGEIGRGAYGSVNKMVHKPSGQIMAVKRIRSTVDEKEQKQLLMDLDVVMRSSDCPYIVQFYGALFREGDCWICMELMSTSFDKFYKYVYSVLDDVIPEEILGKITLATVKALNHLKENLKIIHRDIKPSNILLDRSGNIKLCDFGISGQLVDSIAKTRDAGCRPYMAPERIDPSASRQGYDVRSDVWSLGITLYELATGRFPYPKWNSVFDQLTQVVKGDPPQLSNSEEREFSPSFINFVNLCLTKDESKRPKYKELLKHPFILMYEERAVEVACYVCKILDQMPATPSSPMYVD
Description: as §1, §2, §3, §4
Inhibition potency against MKK4 is categorized as follows:
Assay at single concentration (100 nM):

[4] = biological target: T3, BRaf (Homo sapiens, UniProt P15056); test: 33PanQinase enzyme assay, BRaf; conditions: ratio IC50(BRaf)/IC50(MKK4)
T3 construct: purchased ProQinase GmbH, Freiburg, Germany (33PanQinase Assay Service)
Description: as §1, §2, §3, §4, §5

T3 sequence (P15056 whole entry, species assumed): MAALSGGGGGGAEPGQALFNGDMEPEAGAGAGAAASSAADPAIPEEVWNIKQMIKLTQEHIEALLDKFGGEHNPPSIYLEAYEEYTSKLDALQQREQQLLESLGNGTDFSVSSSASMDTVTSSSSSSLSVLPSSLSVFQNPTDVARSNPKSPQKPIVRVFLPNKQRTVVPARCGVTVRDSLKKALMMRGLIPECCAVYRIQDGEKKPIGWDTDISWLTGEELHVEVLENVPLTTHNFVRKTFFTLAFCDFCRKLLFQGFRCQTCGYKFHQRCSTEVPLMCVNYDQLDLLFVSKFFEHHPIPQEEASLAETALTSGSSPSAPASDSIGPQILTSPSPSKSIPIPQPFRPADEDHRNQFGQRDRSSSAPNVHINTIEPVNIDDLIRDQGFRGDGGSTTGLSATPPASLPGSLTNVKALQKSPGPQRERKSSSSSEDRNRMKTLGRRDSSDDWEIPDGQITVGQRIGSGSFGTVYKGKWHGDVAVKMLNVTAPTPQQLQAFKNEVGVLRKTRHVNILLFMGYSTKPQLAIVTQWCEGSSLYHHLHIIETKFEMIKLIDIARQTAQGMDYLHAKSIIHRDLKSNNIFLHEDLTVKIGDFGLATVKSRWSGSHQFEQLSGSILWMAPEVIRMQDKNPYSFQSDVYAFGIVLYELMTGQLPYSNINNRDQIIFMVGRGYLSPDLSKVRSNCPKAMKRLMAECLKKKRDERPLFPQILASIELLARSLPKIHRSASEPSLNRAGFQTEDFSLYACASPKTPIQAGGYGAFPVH
Sequence of JNK1 (P45983 whole entry): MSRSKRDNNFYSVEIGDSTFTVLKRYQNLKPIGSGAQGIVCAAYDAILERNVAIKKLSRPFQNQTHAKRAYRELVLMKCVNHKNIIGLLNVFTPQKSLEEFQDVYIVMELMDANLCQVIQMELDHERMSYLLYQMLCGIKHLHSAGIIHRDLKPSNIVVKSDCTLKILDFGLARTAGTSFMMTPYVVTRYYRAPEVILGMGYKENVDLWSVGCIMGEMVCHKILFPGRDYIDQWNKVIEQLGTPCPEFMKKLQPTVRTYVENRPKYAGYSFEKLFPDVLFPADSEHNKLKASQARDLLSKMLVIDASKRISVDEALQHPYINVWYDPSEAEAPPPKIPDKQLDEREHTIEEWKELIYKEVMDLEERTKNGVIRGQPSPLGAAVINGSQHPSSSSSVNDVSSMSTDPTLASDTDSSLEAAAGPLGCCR

| SMILES | Selectivity JNK1, IC50(off-target)/IC50(MKK4) [1] | Selectivity IVIKK7, IC50(off-target)/IC50(MKK4) [2] | IC50 [3] [nM] | Selectivity Braf, IC50(off-target)/IC50(MKK4) [4] | remaining activity at 0.1 µM ([3]; single concentration 100 nM, read-out: Potency MKK4 (residual activity, assay at single concentration)) [%] |
| --- | --- | --- | --- | --- | --- |
| CCCS(=O)(=O)Nc1ccc(F)c(C(=O)c2c[nH]c3ncc(-c4ccc(S(C)(=O)=O)cc4)cc23)c1F [Example 54] | ◯ (3 ≥ IC50(off-target)/IC50(MKK4)) | +++ (IC50(off-target)/IC50(MKK4) > 100) | 100 to 1000 | ◯ (3 ≥ IC50(off-target)/IC50(MKK4)) | – |
| CCCS(=O)(=O)Nc1ccc(F)c(C(=O)c2c[nH]c3ncc(-c4ccc(SC)cc4)cc23)c1F [Example 55] | + (10 ≥ IC50(off-target)/IC50(MKK4) > 3) | +++ (IC50(off-target)/IC50(MKK4) > 100) | 100 to 1000 | ◯ (3 ≥ IC50(off-target)/IC50(MKK4)) | – |
| CCCS(=O)(=O)Nc1ccc(F)c(C(=O)c2c[nH]c3ncc(-c4ccoc4)cc23)c1F [Example 56] | ◯ (3 ≥ IC50(off-target)/IC50(MKK4)) | +++ (IC50(off-target)/IC50(MKK4) > 100) | 100 to 1000 | ◯ (3 ≥ IC50(off-target)/IC50(MKK4)) | – |
| CCCS(=O)(=O)Nc1ccc(F)c(C(=O)c2c[nH]c3ncc(-c4cscn4)cc23)c1F [Example 57] | ◯ (3 ≥ IC50(off-target)/IC50(MKK4)) | +++ (IC50(off-target)/IC50(MKK4) > 100) | 100 to 1000 | ◯ (3 ≥ IC50(off-target)/IC50(MKK4)) | – |
| CCCS(=O)(=O)Nc1ccc(F)c(C(=O)c2c[nH]c3ncc(N4CCOCC4)cc23)c1F [Example 70, N-(2,4-difluoro-3-(5-morpholino-1H-pyrrolo[2,3-b]pyridine-3-carbonyl)phenyl)propane-1-sulfonamide] | ++ (100 ≥ IC50(off-target)/IC50(MKK4) > 10) | +++ (IC50(off-target)/IC50(MKK4) > 100) | 100 to 1000 | ◯ (3 ≥ IC50(off-target)/IC50(MKK4)) | – |
| CCCS(=O)(=O)Nc1ccc(F)c(C(=O)c2c[nH]c3ncc(N4CCNCC4)cc23)c1F [Example 71, N-(2,4-difluoro-3-(5-(piperazin-1-yl)-1H-pyrrolo[2,3-b]pyridine-3-carbonyl)phenyl)propane-1-sulfonamide] | ◯ (3 ≥ IC50(off-target)/IC50(MKK4)) | ++ (100 ≥ IC50(off-target)/IC50(MKK4) > 10) | 1000 to 10000 | ◯ (3 ≥ IC50(off-target)/IC50(MKK4)) | – |
| CCCS(=O)(=O)Nc1ccc(F)c(C(=O)c2c[nH]c3ncc(-c4ccc(S(=O)(=O)C(F)F)cc4)cc23)c1F [Example 74, N-(3-(5-(4-((difluoromethyl)sulfonyl)phenyl)-1H-pyrrolo[2,3-b]pyridine-3-carbonyl)-2,4-difluorophenyl)propane-1-sulfonamide] | + (10 ≥ IC50(off-target)/IC50(MKK4) > 3) | +++ (IC50(off-target)/IC50(MKK4) > 100) | 100 to 1000 | ◯ (3 ≥ IC50(off-target)/IC50(MKK4)) | – |
| CCCS(=O)(=O)Nc1ccc(F)c(C(=O)c2c[nH]c3ncc(-c4ccc([S+](C)[O-])cc4)cc23)c1F (stereo not drawn) [Example 75, N-(2,4-difluoro-3-(5-(4-(methylsulfinyl)phenyl)-1H-pyrrolo[2,3-b]pyridine-3-carbonyl)phenyl)propane-1-sulfonamide] | + (10 ≥ IC50(off-target)/IC50(MKK4) > 3) | +++ (IC50(off-target)/IC50(MKK4) > 100) | 100 to 1000 | ◯ (3 ≥ IC50(off-target)/IC50(MKK4)) | – |
| CCCS(=O)(=O)Nc1ccc(F)c(C(=O)c2c[nH]c3ncc(-c4ccc(SCCN)cc4)cc23)c1F [Example 76, N-(3-(5-(4-((2-aminoethyl)thio)phenyl)-1H-pyrrolo[2,3-b]pyridine-3-carbonyl)-2,4-difluorophenyl)propane-1-sulfonamide] | + (10 ≥ IC50(off-target)/IC50(MKK4) > 3) | +++ (IC50(off-target)/IC50(MKK4) > 100) | 100 to 1000 | ◯ (3 ≥ IC50(off-target)/IC50(MKK4)) | – |
| CCCS(=O)(=O)Nc1ccc(F)c(C(=O)c2c[nH]c3ncc(-c4ccc(SC(F)(F)F)cc4)cc23)c1F [Example 78, N-(2,4-difluoro-3-(5-(4-((trifluoromethyl)thio)phenyl)-1H-pyrrolo[2,3-b]pyridine-3-carbonyl)phenyl)propane-1-sulfonamide] | + (10 ≥ IC50(off-target)/IC50(MKK4) > 3) | +++ (IC50(off-target)/IC50(MKK4) > 100) | 100 to 1000 | ◯ (3 ≥ IC50(off-target)/IC50(MKK4)) | – |
| O=C(c1c(F)ccc(NS(=O)(=O)CCC(F)(F)F)c1F)c1c[nH]c2ncc(-c3ccc(N4CCSCC4)nc3)cc12 [Example 80, N-(2,4-difluoro-3-(5-(6-thiomorpholinopyridin-3-yl)-1H-pyrrolo[2,3-b]pyridine-3-carbonyl)phenyl)-3,3,3-trifluoropropane-1-sulfonamide] | ++ (100 ≥ IC50(off-target)/IC50(MKK4) > 10) | +++ (IC50(off-target)/IC50(MKK4) > 100) | < 100 | ++ (100 ≥ IC50(off-target)/IC50(MKK4) > 10) | – |
| CCCS(=O)(=O)Nc1ccc(F)c(C(=O)c2c[nH]c3ncc(-c4cnccn4)cc23)c1F [Example 89, N-(2,4-difluoro-3-(5-(pyrazin-2-yl)-1H-pyrrolo[2,3-b]pyridine-3-carbonyl)phenyl)propane-1-sulfonamide] | ◯ (3 ≥ IC50(off-target)/IC50(MKK4)) | ++ (100 ≥ IC50(off-target)/IC50(MKK4) > 10) | 1000 to 10000 | ◯ (3 ≥ IC50(off-target)/IC50(MKK4)) | – |
| CCCS(=O)(=O)Nc1ccc(F)c(C(=O)c2c[nH]c3ncc(-c4ncccn4)cc23)c1F [Example 90, N-(2,4-difluoro-3-(5-(pyrimidin-2-yl)-1H-pyrrolo[2,3-b]pyridine-3-carbonyl)phenyl)propane-1-sulfonamide] | ◯ (3 ≥ IC50(off-target)/IC50(MKK4)) | ++ (100 ≥ IC50(off-target)/IC50(MKK4) > 10) | 1000 to 10000 | ◯ (3 ≥ IC50(off-target)/IC50(MKK4)) | – |
| CCCS(=O)(=O)Nc1ccc(F)c(C(=O)c2c[nH]c3ncc(-c4ccc(S(N)(=O)=O)cc4)cc23)c1F [Example 96, 4-(3-(2,6-difluoro-3-(propylsulfonamido)benzoyl)-pyrrolo[2,3-b]pyridin-5-yl)benzenesulfonamide] | – | – | – | – | 50 to 70 |
| CCCS(=O)(=O)Nc1ccc(F)c(C(=O)c2c[nH]c3ncc(-c4ccc(N)cc4)cc23)c1F [Example 121, N-(3-(5-(4-aminophenyl)-1H-pyrrolo[2,3-b]pyridine-3-carbonyl)-2,4-difluorophenyl)propane-1-sulfonamide] | – | – | 100 to 1000 | – | – |
